Experimental data from patent US10966955B2, “Ocular drug delivery system and uses thereof” (Chang Gung University, priority 2020, dated 2021).

Tests used:
[1] = In vitro drug release of the ocular drug delivery system in sPLA2 solution (HPLC); assay type: physicochemical
Method: A suitable amount of the ocular drug delivery system obtained in Example 1 was immersed in 1 mL of a sPLA2 solution (containing 0.1 mg/mL sPLA2), followed by incubation at 37° C. with reciprocal shaking (100 rpm) in a thermostatically controlled water bath for a designated time period ranging from 0 minutes to 168 hours. Sample solutions were taken at each time point of 0, 1, 2, 3, 4, 5, 12, 24, 48, 72, 96, 120, 144, and 168 hours. The sample solutions thus obtained were centrifuged at 1000 rpm for 3 minutes. The resultant supernatants were collected and then subjected to high performance liquid chromatography (HPLC) analysis using a L-2400 UV detector, a L-2130 pump (Hitachi, Tokyo, Japan), and a Mightysil RP-18 column (Kanto Chemical, Tokyo, Japan). The HPLC operating conditions applied were described as follows. The mobile phase was 90% water with 0.1% trifluroacetic acid and 10% acetonitrile, and the flow rate of the mobile phase was 1 mL/min. The injection volume was 10 μL. The elution peak was detected by measuring absorbance at 280 nm (for EGCG), 305 nm (for β-1,3 glucan), and 274 nm (for SB-431542), respectively. The amount of EGCG released from the sPLA2 hydrolysable liposomes was calculated with reference to a standard calibration curve of EGCG. Results from five independent measurements were averaged and further used to calculate the cumulative released amount of EGCG.

[2] = In vitro drug release of the ocular drug delivery system in hyaluronidase solution (HPLC); assay type: physicochemical; conditions: for release rate compared with the other drugs (in words): hyaluronidase solution, EGCG in sPLA2 solution
Method: A suitable amount of the ocular drug delivery system obtained in Example 1 was immersed in 1 mL of a sPLA2 solution (containing 0.1 mg/mL sPLA2), followed by incubation at 37° C. with reciprocal shaking (100 rpm) in a thermostatically controlled water bath for a designated time period ranging from 0 minutes to 168 hours. Sample solutions were taken at each time point of 0, 1, 2, 3, 4, 5, 12, 24, 48, 72, 96, 120, 144, and 168 hours.
The sample solutions thus obtained were centrifuged at 1000 rpm for 3 minutes. The resultant supernatants were collected and then subjected to high performance liquid chromatography (HPLC) analysis using a L-2400 UV detector, a L-2130 pump (Hitachi, Tokyo, Japan), and a Mightysil RP-18 column (Kanto Chemical, Tokyo, Japan).
The HPLC operating conditions applied were described as follows. The mobile phase was 90% water with 0.1% trifluroacetic acid and 10% acetonitrile, and the flow rate of the mobile phase was 1 mL/min. The injection volume was 10 μL. The elution peak was detected by measuring absorbance at 280 nm (for EGCG), 305 nm (for β-1,3 glucan), and 274 nm (for SB-431542), respectively.
The release profile of β-1,3-glucan from the first HA-SH nanoparticles and the release profile of SB-431542 from the second HA-SH nanoparticles were evaluated substantially according to the procedures as described above, except that the ocular drug delivery system was immersed in 1 mL of a hyaluronidase solution (containing 100 U/mL hyaluronidase).

[3] = tested on: SIRC cells; assay: Cell migration assay of SIRC cells; assay type: cell-based, rabbit; conditions: cell-free gap about 180 μm, 18 hours
Method: (b) Rabbit corneal epithelial (SIRC) cells (BCRC NO: 60093) were obtained from the Bioresources Collection and Research Center (BCRC) of Food Industry Research and Development Institute (FIRDI) (Hsinchu, Taiwan). The SIRC cells were grown in a regular growth medium containing minimum essential medium (MEM) and 10% fetal bovine serum (FBS), and were cultivated in a humidified atmosphere (5% CO2, 37° C.).
A cell culture insert was placed into each well of a 12-well culture plate. The SIRC cells were seeded into the culture tanks on both sides of the culture insert at a cell number of 1×10^4 cells and then incubated overnight to allow cell attachment. Thereafter, the culture insert was removed to create a cell-free gap with a width of about 180 μm, and then the liquid in each well was removed. Each well was washed three times with phosphate-buffered saline (PBS), followed by addition of 200 μL of Eagle's minimum essential medium (MEM). […]
At 0 and 18 hours after incubation, the cell migration profile of the SIRC cells in each group was photographed using an inverted phase contrast microscope (Nikon, Melville, N.Y., USA), and the width of the cell-free gap was measured by ImageJ software. The cell migration rate (%) was calculated using the following Equation (I): Cell migration rate (%)=[A−B)/A]×100 (I) […]

Row | Compound | release of EGCG (in words) ([1]; within 8 hours following initiation of the release test, sPLA2 solution) | cumulative release rate of EGCG from the sPLA2 hydrolysable liposomes ([1]; within 20 hours, 0.1 mg/mL sPLA2 solution, 37° C.) | release rate compared with the other drugs (in words) [2] | cumulative release rate of β-1,3 glucan from the first HA-SH nanoparticles ([2]; within 70 hours after initiation of the release test, 100 U/mL hyaluronidase solution, 37° C.) | Cell migration rate (%) [3] | cumulative release rate of SB-431542 from the second HA-SH nanoparticles ([2]; at the 160th hour after initiation of the release test, 100 U/mL hyaluronidase solution, 37° C.)
1 | O=C(O[C@@H]1Cc2c(O)cc(O)cc2O[C@@H]1c1cc(O)c(O)c(O)c1)c1cc(O)c(O)c(O)c1 [EGCG, epigallocatechin gallate] | released in a large amount | 90% | – | – | – | –
2 | β-1,3-glucan [β-1,3 glucan] | – | – | slower than that of EGCG | 90% | 73% | –
3 | NC(=O)c1ccc(-c2nc(-c3ccc4c(c3)OCO4)c(-c3ccccn3)[nH]2)cc1 [SB-431542] | – | – | slower than those of EGCG and β-1,3 glucan | – | – | 80%
